Values quoted from earlier work as cited in patent publication US20070292469A1, “Antimicrobial composition” (priority 2005, published 2007).

Tested on: wide range of microorganisms
Conditions: literature statement (Block, Disinfection, Sterilization, and Preservation 4th ed. 1991)

Substance | antimicrobial activity
monoethanolamines | lack dramatic antimicrobial activity
α-4-[1-tris(2-hydroxyethyl) ammonium-2-butenyl] poly[1-dimethylammonium-2-butenyl]-ω-tris(2-hydroxyethyl)ammonium chloride [polyquaternium 1] | significant antimicrobial activity
